# Measured values as given in patent US10172863B2, “Purine derivatives useful as HSP90 inhibitors” (Sloan-Kettering Institute for Cancer Research, priority 2009, dated 2019).
# System: SKBr3 cell Hsp90
# Experiment: EC50 for Hsp90 binding in SKBr3 cell lysate
# Details: read-out: EC50, binding to SKBr3 cell Hsp90
row,SMILES,EC50
1,"CC(C)(C)CNCCn1c(Sc2cc3c(cc2-c2ccoc2)OCO3)nc2c(N)ncnc21 [Compound 4C-14, 8-(6-(furan-3-yl)benzo[d][1,3]dioxol-5-ylthio)-9-(2-(neopentylamino)ethyl)-9H-purin-6-amine]",10.1 nM
2,"CC(C)NCCCn1c(Sc2cc3c(cc2-c2ncco2)OCO3)nc2c(N)ncnc21 [Compound 4C-38, 9-(3-(isopropylamino)propyl)-8-(6-(oxazol-2-yl)benzo[d][1,3]dioxol-5-ylthio)-9H-purin-6-amine]",7.9 nM
3,"CC(C)NCCCn1c(Sc2cc3c(cc2-c2cc(C(F)(F)F)cc(C(F)(F)F)c2)OCO3)nc2c(N)ncnc21 [Compound 4A-3, 8-(6-(3,5-bis(trifluoromethyl)phenyl)benzo[d][1,3]dioxol-5-ylthio)-9-(3-(isopropylamino)propyl)-9H-purin-6-amine]",> 100000 nM
4,"NCCCCCCNCCCn1c(Sc2cc3c(cc2-c2cc(C(F)(F)F)cc(C(F)(F)F)c2)OCO3)nc2c(N)ncnc21 [Compound 4A-4, N1-(3-(6-amino-8-(6-(3,5-bis(trifluoromethyl)phenyl)benzo[d][1,3]dioxol-5-ylthio)-9H-purin-9-yl)propyl)hexane-1,6-diamine]",15000 nM
5,"CC(C)NCCCn1c(Sc2cc3c(cc2-c2cccs2)OCO3)nc2c(N)ncnc21 [Compound 4D-1, 9-(3-(isopropylamino)propyl)-8-(6-(thiophen-2-yl)benzo[d][1,3]dioxol-5-ylthio)-9H-purin-6-amine]",80 nM
6,"CC(C)NCCCn1c(Sc2cc3c(cc2C2CC=CO2)OCO3)nc2c(N)ncnc21 (stereo not drawn) [Compound 4C-40, 8-(6-(2,3-dihydrofuran-2-yl)benzo[d][1,3]dioxol-5-ylthio)-9-(3-(isopropylamino)propyl)-9H-purin-6-amine]",509 nM
7,"CC(C)NCCCn1c(Sc2cc3c(cc2-c2ccco2)OCCO3)nc2c(N)ncnc21 [Compound 5B-1, 8-((7-(furan-2-yl)-2,3-dihydrobenzo[b][1,4]dioxin-6-yl)thio)-9-(3-(isopropylamino)propyl)-9H-purin-6-amine]",6.9 nM
8,"CC(C)NCCCn1c(Sc2cc3c(cc2-c2ccc[nH]2)OCO3)nc2c(N)ncnc21 [Compound 4H-1, 8-(6-(1H-pyrrol-2-yl)benzo[d][1,3]dioxol-5-ylthio)-9-(3-(isopropylamino)propyl)-9H-purin-6-amine]",740 nM
9,"CC(C)(C)CNCCN1C(Sc2cc3c(cc2I)OCCO3)=NC2C(N)=NC=NC21 (stereo not drawn) [Compound 5A-3, 8-(7-Iodo-2,3-dihydrobenzo[b][1,4]dioxin-6-ylthio)-9-(2-(neopentylamino)ethyl)-5,9-dihydro-4H-purin-6-amine]",34.8 nM
10,"COc1ccc(-c2ccco2)c(Sc2nc3c(N)ncnc3n2CCNCC(C)(C)C)c1 [Compound 7C-13, 8-(2-(furan-2-yl)-5-methoxyphenylthio)-9-(2-(neopentylamino)ethyl)-9H-purin-6-amine]",84 nM
11,"CC(C)NCCCn1c(Sc2cc3c(cc2I)OCCO3)nc2c(N)ncnc21 [Compound 5A-1, 8-(7-Iodo-2,3-dihydrobenzo[b][1,4]dioxin-6-ylthio)-9-(3-(isopropylamino)propyl)-9H-purin-6-amine]",34.5 nM
12,"CC(C)NCCCn1c(Sc2cc3c(cc2-c2ccoc2)OCO3)nc2c(N)ncnc21 [Compound 4C-2, 8-(6-(furan-3-yl)benzo[d][1,3]dioxol-5-ylthio)-9-(3-(isopropylamino)propyl)-9H-purin-6-amine]",86 nM
13,"CC(C)NCCCn1c(Sc2cc3c(cc2CC#N)OCO3)nc2c(N)ncnc21 [Compound 4E-3, 2-(6-((6-amino-9-(3-(isopropylamino)propyl)-9H-purin-8-yl)thio)benzo[d][1,3]dioxol-5-yl)acetonitrile]",1130 nM
14,"CC(C)NCCCn1c(Sc2cc3c(cc2-c2ccco2)OCO3)nc2c(N)ncnc21 [Compound 4C-1, 8-(6-(furan-2-yl)benzo[d][1,3]dioxol-5-ylthio)-9-(3-(isopropylamino)propyl)-9H-purin-6-amine]",22 nM
15,"CC(C)NCCCn1c(Sc2cc3c(cc2-c2ccncc2)OCO3)nc2c(N)ncnc21 [Compound 4F-1, 9-(3-(isopropylamino)propyl)-8-(6-(pyridin-4-yl)benzo[d][1,3]dioxol-5-ylthio)-9H-purin-6-amine]",9620 nM
16,"CC(C)NCCCn1c(Sc2cc3c(cc2-c2ccc(Br)cc2)OCO3)nc2c(N)ncnc21 [Compound 4A-7, 8-(6-(4-bromophenyl)benzo[d][1,3]dioxol-5-ylthio)-9-(3-(isopropylamino)propyl)-9H-purin-6-amine]",1380 nM
17,"CC(C)NCCCn1c(Sc2cc3ccccc3cc2I)nc2c(N)ncnc21 [Compound 6B-25, 8-(3-iodonaphthalen-2-ylthio)-9-(3-(isopropylamino)propyl)-9H-purin-6-amine]",97 nM

# Next, values leading:
row,EC50,SMILES
1,26700 nM,"CC(C)NCCCn1c(Sc2cc3c(cc2C2C=CCN2)OCO3)nc2c(N)ncnc21 (stereo not drawn) [Compound 4H-7, 8-(6-(2,5-dihydro-1H-pyrrol-2-yl)benzo[d][1,3]dioxol-5-ylthio)-9-(3-(isopropylamino)propyl)-9H-purin-6-amine]"
2,3.5 nM,"CC(C)NCCCn1c(Sc2cc3c(cc2-c2ncco2)OCCO3)nc2c(N)ncnc21 [Compound 5B-34, 9-(3-(isopropylamino)propyl)-8-((7-(oxazol-2-yl)-2,3-dihydrobenzo[b][1,4]dioxin-6-yl)thio)-9H-purin-6-amine]"
3,5.5 nM,"CC(C)NCCCn1c(Sc2cc3c(cc2-c2cc[nH]n2)OCO3)nc2c(N)ncnc21 [Compound 4G-6, 8-(6-(1H-pyrazol-3-yl)benzo[d][1,3]dioxol-5-ylthio)-9-(3-(isopropylamino)propyl)-9H-purin-6-amine]"
4,18.5 nM,"CC(C)(C)CNCCn1c(Sc2cc3c(cc2-c2cccs2)OCO3)nc2c(N)ncnc21 [Compound 4D-3, 9-(2-(neopentylamino)ethyl)-8-(6-(thiophen-2-yl)benzo[d][1,3]dioxol-5-ylthio)-9H-purin-6-amine]"
5,32 nM,"COc1ccc(-c2cc[nH]n2)c(Sc2nc3c(N)ncnc3n2CCNCC(C)(C)C)c1 [Compound 7E-6, 8-(5-methoxy-2-(1H-pyrazol-3-yl)phenylthio)-9-(2-(neopentylamino)ethyl)-9H-purin-6-amine]"
6,240 nM,"COc1ccc(-c2cccs2)c(Sc2nc3c(N)ncnc3n2CCNCC(C)(C)C)c1 [Compound 7D-3, 8-(5-methoxy-2-(thiophen-2-yl)phenylthio)-9-(2-(neopentylamino)ethyl)-9H-purin-6-amine]"
7,24.6 nM,"CC(C)(C)CNCCn1c(Sc2cc3c(cc2-c2cc[nH]c2)OCO3)nc2c(N)ncnc21 [Compound 4H-4, 8-(6-(1H-pyrrol-3-yl)benzo[d][1,3]dioxol-5-ylthio)-9-(2-(neopentylamino)ethyl)-9H-purin-6-amine]"
8,5.5 nM,"CC(C)(C)CNCCn1c(Sc2cc3c(cc2-c2cc[nH]n2)OCO3)nc2c(N)ncnc21 [Compound 4G-9, 8-(6-(1H-pyrazol-3-yl)benzo[d][1,3]dioxol-5-ylthio)-9-(2-(neopentylamino)ethyl)-9H-purin-6-amine]"
9,62.8 nM,"Nc1ncnc2c1nc(Sc1cc3c(cc1I)OCCO3)n2CCCn1ccnc1 [Compound 5A-4, 9-(3-(1H-imidazol-1-yl)propyl)-8-(7-iodo-2,3-dihydrobenzo[b][1,4]dioxin-6-ylthio)-9H-purin-6-amine]"
10,37 nM,"Cc1ccc(-c2cc3c(cc2Sc2nc4c(N)ncnc4n2CCCNC(C)C)OCO3)o1 [Compound 4C-8, 9-(3-(isopropylamino)propyl)-8-(6-(5-methylfuran-2-yl)benzo[d][1,3]dioxol-5-ylthio)-9H-purin-6-amine]"
11,> 3000 nM,"CC(C)NCCCn1c(Sc2cc3c(cc2-c2ccc(C=O)cc2)OCO3)nc2c(N)ncnc21 [Compound 4A-8, 4-(6-(6-amino-9-(3-(isopropylamino)propyl)-9H-purin-8-ylthio)benzo[d][1,3]dioxol-5-yl)benzaldehyde]"
12,34.6 nM,"CC(C)CNCCN1C(Sc2cc3c(cc2I)OCCO3)=NC2C(N)=NC=NC21 (stereo not drawn) [Compound 5A-2, 8-(7-Iodo-2,3-dihydrobenzo[b][1,4]dioxin-6-ylthio)-9-(2-(isobutylamino)ethyl)-5,9-dihydro-4H-purin-6-amine]"
13,1030 nM,"COc1ccc(-c2cc3c(cc2Sc2nc4c(N)ncnc4n2CCCNC(C)C)OCO3)cc1 [Compound 4A-6, 9-(3-(isopropylamino)propyl)-8-(6-(4-methoxyphenyl)benzo[d][1,3]dioxol-5-ylthio)-9H-purin-6-amine]"
14,10.2 nM,"Cc1ccc(-c2cc3c(cc2Sc2nc4c(N)ncnc4n2CCNCC(C)(C)C)OCO3)o1 [Compound 4C-16, 8-(6-(5-methylfuran-2-yl)benzo[d][1,3]dioxol-5-ylthio)-9-(2-(neopentylamino)ethyl)-9H-purin-6-amine]"
15,645 nM,"CC(C)NCCCn1c(Sc2cc3c(cc2-c2ccccc2)OCO3)nc2c(N)ncnc21 [Compound 4A-1, 9-(3-(isopropylamino)propyl)-8-(6-phenylbenzo[d][1,3]dioxol-5-ylthio)-9H-purin-6-amine]"
16,47 nM,"CC(C)NCCCn1c(Sc2cc3c(cc2-c2nccs2)OCO3)nc2c(N)ncnc21 [Compound 4D-16, 9-(3-(isopropylamino)propyl)-8-(6-(thiazol-2-yl)benzo[d][1,3]dioxol-5-ylthio)-9H-purin-6-amine]"
17,> 300 nM,"CC(C)NCCCn1c(Sc2cc3c(cc2-c2ccnn2C)OCO3)nc2c(N)ncnc21 [Compound 4G-4, 9-(3-(isopropylamino)propyl)-8-(6-(1-methyl-1H-pyrazol-5-yl)benzo[d][1,3]dioxol-5-ylthio)-9H-purin-6-amine]"
18,1020 nM,"CC(C)NCCCn1c(Sc2cc3c(cc2-c2cn[nH]c2)OCO3)nc2c(N)ncnc21 [Compound 4G-1, 8-(6-(1H-pyrazol-4-yl)benzo[d][1,3]dioxol-5-ylthio)-9-(3-(isopropylamino)propyl)-9H-purin-6-amine]"
19,141 nM,"CC(C)NCCCn1c(Sc2cc3c(cc2-c2ccc(C=O)o2)OCO3)nc2c(N)ncnc21 [Compound 4C-6, 5-(6-(6-amino-9-(3-(isopropylamino)propyl)-9H-purin-8-ylthio)benzo[d][1,3]dioxol-5-yl)furan-2-carbaldehyde]"
